Values of other authors as cited in patent publication US9303066B2 (priority 2011, dated 2016).
Positions of bridges follow the written chain, without caps; N, C: chain ends. Residues, ends and D or L forms follow the SMILES beside them. No end group written: not given here.

Legend:
[1] = in vivo, po
GC-C [2] = target: T1, GC-C (Homo sapiens, UniProt P25092); set-up: from tissue; host or cells: intestinal epithelium (luminal surface) in vivo; settings: in vivo, po
[3] = 37° C.
GC-C [4] = target: T1, GC-C; settings: cultured GC-C-expressing cells

T1 sequence (P25092 24-1073, species assumed): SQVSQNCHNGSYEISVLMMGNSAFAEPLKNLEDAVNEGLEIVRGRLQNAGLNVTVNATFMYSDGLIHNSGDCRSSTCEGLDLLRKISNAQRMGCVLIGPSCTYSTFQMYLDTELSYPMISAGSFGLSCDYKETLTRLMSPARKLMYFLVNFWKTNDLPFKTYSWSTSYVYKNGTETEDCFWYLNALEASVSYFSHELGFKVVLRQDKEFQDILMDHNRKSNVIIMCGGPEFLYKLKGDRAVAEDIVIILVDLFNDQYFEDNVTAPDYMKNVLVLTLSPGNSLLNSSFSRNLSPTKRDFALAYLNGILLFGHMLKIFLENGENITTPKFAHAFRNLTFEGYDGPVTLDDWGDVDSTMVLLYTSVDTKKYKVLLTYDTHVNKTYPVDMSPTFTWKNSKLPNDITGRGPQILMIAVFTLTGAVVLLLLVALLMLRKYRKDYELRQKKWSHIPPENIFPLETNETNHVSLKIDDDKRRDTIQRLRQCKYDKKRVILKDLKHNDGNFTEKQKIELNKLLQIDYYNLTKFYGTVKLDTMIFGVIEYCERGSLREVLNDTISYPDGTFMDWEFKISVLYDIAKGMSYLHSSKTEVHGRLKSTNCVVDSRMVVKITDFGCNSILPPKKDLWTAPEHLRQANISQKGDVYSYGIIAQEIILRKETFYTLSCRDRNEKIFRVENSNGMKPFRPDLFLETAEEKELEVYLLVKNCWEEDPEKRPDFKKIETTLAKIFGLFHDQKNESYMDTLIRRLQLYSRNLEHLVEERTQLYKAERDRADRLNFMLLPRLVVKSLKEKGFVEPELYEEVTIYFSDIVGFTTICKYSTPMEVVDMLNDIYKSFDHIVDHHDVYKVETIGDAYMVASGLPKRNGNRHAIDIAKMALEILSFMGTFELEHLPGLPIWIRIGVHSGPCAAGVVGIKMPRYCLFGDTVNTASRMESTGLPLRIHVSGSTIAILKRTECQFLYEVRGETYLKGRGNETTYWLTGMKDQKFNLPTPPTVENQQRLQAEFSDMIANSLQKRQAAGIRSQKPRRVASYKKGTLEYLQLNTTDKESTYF

## C[C@@H]1NC(=O)[C@@H]2CCCN2C(=O)[C@H](CC(N)=O)NC(=O)[C@@H]2CSSC[C@H](N)C(=O)N[C@H]3CSSC[C@H](NC1=O)C(=O)N[C@@H]([C@@H](C)O)C(=O)NCC(=O)N[C@H](C(=O)N[C@@H](Cc1ccc(O)cc1)C(=O)O)CSSC[C@H](NC(=O)[C@H](Cc1ccc(O)cc1)NC(=O)[C@H](CCC(=O)O)NC3=O)C(=O)N2 [Linaclotide] (H-CCEYCCNPACTGCY-OH; disulfide 1-6, 2-10, 5-13)
[1]
  levels seen systemically: no detectable levels
GC-C [2]
  GI transit: increased GI transit
  bloating: reduced bloating
  visceral pain: reduced visceral pain

## NDDCELCVNVACTGCL (cysteine pairing not given here) [human Ugn]
[3]
  half-life of each form (A and B conformation): about 2 days

## UgnB: B conformational stereoisomer of human uroguanylin, separated by HPLC (NDDCELCVNVACTGCL; disulfide 4-12, 7-15; also: B conformational stereoisomer (HPLC-separated); UniProt Q16661 97-112, looked up)
GC-C [4]
  fold less potent than UgnA: more than 100 fold
